Data reported in US7205383B2, “Peptide ligands of leukocyte integrins” (Karyon-CTT Ltd., priority 2001, dated 2007).
Bridge positions count the residues as written; N and C are the ends. Peptide text beside a SMILES is read from it.

Tests used:
[1] = test system: THP-1 cells on von Willebrand factor; type: cell-based; conditions: phorbol ester-activated THP-1; read-out: IC50, inhibition of THP-1 cell binding to von Willebrand factor
Protocol: In FIG. 5(A), THP-1 cell binding to von Wirebrand factor was examined in the presence of antibodies against the β2 (7E4), αvβ3 (LM609) or αIIbβ3 (P2) integrins. Following a 60 min incubation in von Willebrand factor-coated wells, the bound cells were determined. The data are the mean ±SD of triplicate wells. The experiment was repeated three times.
(§1) In FIG. 5(B), TRP-1 cells were allowed to bind to microtiter wells coated with von Willebrand factor, type IV collagen, or fibronectin. The C(1–8;3–9) peptide was included as a competitor in the concentrations described. The bound cells were determined by the phosphatase assay. The data are the mean ±SD of triplicate wells and were similar in four other experiments.
(§2) Fibrinogen, fibronectin, von Wrlnebrand factor, type IV collagen, GST fusion proteins, Fc fusion proteins or synthetic peptides were coated on microtiter wells at a concentration of 2 μg in 50 μl TBS unless otherwise indicated. A recombinant von Willebrand factor and a capturing antibody to it kindly provided by Drs. J. J. Sixma and Ph. G. de Groot (University Medical Center Utrecht, the Netherlands) were also used. To prepare polymerized peptides, glutaraldehyde was added at a final concentration of 0.25%. The wells were saturated with 5% BSA and then washed five times with PBS. Prior to adhesion assays, cells were treated with 50 nM 40-Phorbol 12,13-dibutyrate or with 200 μM P1 peptide (Kotovuori et al., 1999) in serum-free medium for 30 min at room temperature to activate the integrins. Alternatively, cells were stimulated for 60 min at 37° C. with the phorbol ester (50 nM) and the C(1–8;3–9) and RGD-4C peptides each at a 2.5 μM concentration, after which the peptides were removed by washing with PBS/2.5 mM EDTA. Cells were incubated in the microtiter wells (100 000 cells per well) for 60 min at 37° C. in the absence or presence of competing peptides, antibodies or EDTA. […] The bound cells were determined by an assay measuring cellular phosphatase activity. […] The absorbance at 405 nm was read on a microplate reader. […]

[2] = Water solubility of the peptides; type: physicochemical; conditions: compared with the C(1–9;3–8) peptide
[3] = test system: THP-1 cells (β2 integrins); conditions: soluble peptide
Protocol: In FIG. 2(A), phorbol ester-activated THP-1 cells were allowed to bind for 60 min to microtiter wells coated with LLG-C4-GST, GST, or albumin. EDTA was included at a 2.5 mM concentration. The bound cells were determined by the assay measuring cellular phosphatase activity. The data are the means ±SD from triplicate wells.
In FIG. 2(B), THP-1 cells were mixed with each antibody against the β1, β2, β3, αL, αM, or αX integrin subunit as indicated at a concentration of […]. An aliquot of cells was then transferred to wells coated with LLG-C4-GST and incubated for 60 min at 37° C. Following washing the bound cells were determined by the phosphatase assay. The results are the mean % adhesion ±SD of 2–4 independent experiments each done in triplicate wells.
In FIG. 3(A), TBP-1 cells were mixed in suspension with the peptide containing either the C(1–8;3–9) or C(1–9;3–8) disulfide. The final concentrations of the peptides are indicated. Cells were then incubated for 60 min at 37° C. in microtiter wells coated with LLG-C4-GST. After washing the wells, the bound cells were quantitated by the phosphatase assay. The results are the mean ±SD from triplicate wells.
In FIG. 3(B), THP-1 cell binding to LLG-C4-GST was examined in the presence of the C(1–8;3–9), CLLGC (SEQ ID NO: 4) or the CAAGC (SEQ ID NO: 5) peptide. The synthetic peptides were used at the concentrations indicated. Following a 60 min incubation the wells were washed and the bound cells were determined by the phosphatase assay.
Fibrinogen, fibronectin, von Wrlnebrand factor, type IV collagen, GST fusion proteins, Fc fusion proteins or synthetic peptides were coated on microtiter wells at a concentration of 2 μg in 50 μl TBS unless otherwise indicated. A recombinant von Willebrand factor and a capturing antibody to it kindly provided by Drs. J. J. Sixma and Ph. G. de Groot (University Medical Center Utrecht, the Netherlands) were also used. To prepare polymerized peptides, glutaraldehyde was added at a final concentration of 0.25%. The wells were saturated with 5% BSA and then washed five times with PBS. Prior to adhesion assays, cells were treated with 50 nM 40-Phorbol 12,13-dibutyrate or with 200 μM P1 peptide (Kotovuori et al., 1999) in serum-free medium for 30 min at room temperature to activate the integrins. Alternatively, cells were stimulated for 60 min at 37° C. with the phorbol ester (50 nM) and the C(1–8;3–9) and RGD-4C peptides each at a 2.5 μM concentration, after which the peptides were removed by washing with PBS/2.5 mM EDTA. Cells were incubated in the microtiter wells (100 000 cells per well) for 60 min at 37° C. in the absence or presence of competing peptides, antibodies or EDTA. Unbound cells were removed by gently washing with PBS and pressing the plate against paper towels. The bound cells were determined by an assay measuring cellular phosphatase activity. Briefly, 100 μl of 50 mM sodium acetate buffer, pH 5.0, containing 1% Triton X-100 and 6 mg/ml p-nitrophenyl phosphate was added per well and incubated for 1 h at 37° C. The reaction was stopped with 50 μl of 1 M NaOH. The absorbance at 405 nm was read on a microplate reader. Alternatively, the attached cells were stained with Crystal Violet essentially as described (Mould et al., 1995).

[4] = test system: THP-1 cells on type IV collagen; experiment: THP-1 cell adhesion on type IV collagen; type: cell-based; conditions: phorbol ester-activated THP-1; read-out: IC50, inhibition of THP-1 adhesion on type IV collagen
Protocol: as §1
as §2, with “integrins.” for “integrins. Alternatively, cells were stimulated for 60 min at 37° C. with the phorbol ester (50 nM) and the C(1–8;3–9) and RGD-4C peptides each at a 2.5 μM concentration, after which the peptides were removed by washing with PBS/2.5 mM EDTA. Cells were incubated in the microtiter wells (100 000 cells per well) for 60 min at 37° C. in the absence or presence of competing peptides, antibodies or EDTA.”

[5] = test system: αLβ2 integrin-mediated binding of Jurkat cells to ICAM-1-Fc; experiment: Jurkat cell adhesion to ICAM-1-Fc; type: cell-based
Protocol: In FIG. 4(A), Jurkat cells were allowed to attach to immobilized ICAM-1-Fc in microtiter wells in the absence or presence of LLG-C4 peptides. Following a 45 min incubation, the unbound cells were removed by immersing the microtiter plate upside down on a decanter containing PBS, and the attached cells were stained with Crystal Violet.
as §2, with “integrins.” for “integrins. Alternatively, cells were stimulated for 60 min at 37° C. with the phorbol ester (50 nM) and the C(1–8;3–9) and RGD-4C peptides each at a 2.5 μM concentration, after which the peptides were removed by washing with PBS/2.5 mM EDTA. Cells were incubated in the microtiter wells (100 000 cells per well) for 60 min at 37° C. in the absence or presence of competing peptides, antibodies or EDTA.”

[6] = test system: THP-1 cells on fibrinogen; experiment: THP-1 cell adhesion to fibrinogen; type: cell-based
Protocol: Following a 60 min incubation the bound cells were determined by the phosphatase assay. The results are the mean ±SD of triplicate wells and were similar in two other experiments.
In FIG. 6(B), to activate integrins, THP-1 cells were stimulated both with phorbol ester (50 nM) and the RGD-4C and C(1–8;3–9) peptides (each 2.5 μM for 1 h. After washing the cells were allowed to bind to fibrinogen-coated wells in the presence of C(1–8;3–9) or RGD-4C or both peptides at the concentrations indicated. After a 30-min incubation the bound cells were determined. The results are the mean ±SD of triplicate wells and were similar in two other experiments. At some data points the SD values are too small to be seen.
Fibrinogen, fibronectin, von Wrlnebrand factor, type IV collagen, GST fusion proteins, Fc fusion proteins or synthetic peptides were coated on microtiter wells at a concentration of 2 μg in 50 μl TBS unless otherwise indicated. A recombinant von Willebrand factor and a capturing antibody to it kindly provided by Drs. J. J. Sixma and Ph. G. de Groot (University Medical Center Utrecht, the Netherlands) were also used. To prepare polymerized peptides, glutaraldehyde was added at a final concentration of 0.25%. […] The bound cells were determined by an assay measuring cellular phosphatase activity. […] The absorbance at 405 nm was read on a microplate reader. […]

[7] = test system: T cells binding to Eahy926 endothelial cells (ICAM-1); experiment: T cell binding to TNF-α-stimulated endothelial cell monolayer; type: cell-based; conditions: peptide 50 μM, 45 min
Protocol: In FIG. 4(B), T cells were allowed to bind to TNF-α-stimulated Eahy endothelial cell monolayers that were grown on microtiter wells. LLG-C4 or RGD-4C was included at a concentration of 50 μM. After a 45 min incubation, the unbound cells were removed by immersing the microtiter plate in a PBS solution, and the bound T cells were determined by the phosphatase assay. The data are the mean ±SD of triplicate wells.
To study T cell binding to an endothelial cell monolayer, Eahy926 endothelial cells were plated on microtiter plates at a density of 5×10^4 cells per well and grown for three days. To stimulate the production of ICAM-1, the cells were further grown for 16 h in the presence of TNF-α at a concentration of 10 ng/ml. T cells (1.5×10^5 per well) were allowed to bind to Eahy926 cells first for 30 min at 4° C., then 15 min at 37° C. The unbound T cells were removed by immersing the microtiter plate up side down in PBS. The bound cells were determined by the phosphatase assay.

THP-1 cells [8] = experiment: Transwell cell migration assay, fibrinogen-coated filters; type: cell-based; conditions: peptide 200 μM, 10% serum, 18 h
Protocol: In FIG. 6(C), Transwell filters were coated both on the upper and lower surface with fibrinogen, or left uncoated, and then saturated with BSA. TBP-1 cells (5×10^4 per filter) were plated on the upper surface of the filter in 10% serum-containing medium. The concentrations of C(1–8;3–9) and C(1–9;3–8) were 200 μM. Following a 18 hour-culture, the cells migrated underneath the filter were determined. The cells were fixed, stained, and then counted under a microscope.
The in vitro migration of THP-1 cells was studied in closely physiological conditions containing 10% serum to not interfere with adhesive properties of cells. Both the upper and lower surfaces of 8 μm pore size Transwell filters were coated with fibrinogen, LLG-C4-GST, or GST at a concentration of 40 μg/ml overnight at 4° C. Free binding sites were blocked by incubation with 5% BSA/TBS. THP-1 cells (5×10^4 in 100 μl) were plated on the upper compartment in 10% FCS-containing medium. The C(1–8;3–9) or C(1–9;3–8) peptide were included at a concentration of 200 μM. The lower compartment was filled with 750 μl of 10% FCS-containing medium. Following a culture for 18 h at 37° C. the filters were immersed in methanol for 15 min, in water for 10 s, and in 0.1% toluidine blue for 5 min. […] Cells were removed from the upper surface of the filter with a cotton swap, and cells migrated on the lower surface were counted microscopically. […]

THP-1 cells [9] = experiment: THP-1 cell adhesion on wells coated with synthetic peptides; type: cell-based
Protocol: In FIG. 2(C), the C(1–8;3–9) and C(1–9;3–8) peptides were coated on microtiter wells by incubating overnight at a concentration of 40 μg/ml in TBS in the absence or presence of glutaraldehyde. Free binding sites on plastic were then blocked with 5% BSA. THP-1 cells ([…]) were allowed to bind for 60 min at 37° C. […] The experiment was repeated twice.
as §2, with “integrins.” for “integrins. Alternatively, cells were stimulated for 60 min at 37° C. with the phorbol ester (50 nM) and the C(1–8;3–9) and RGD-4C peptides each at a 2.5 μM concentration, after which the peptides were removed by washing with PBS/2.5 mM EDTA. Cells were incubated in the microtiter wells (100 000 cells per well) for 60 min at 37° C. in the absence or presence of competing peptides, antibodies or EDTA.”

With `CC(C)C[C@@H]1NC(=O)[C@H](CC(C)C)NC(=O)[C@H](Cc2ccccc2)NC(=O)[C@@H]2CSSC[C@@H](C(=O)O)NC(=O)[C@H](CSSC[C@H](N)C(=O)N3CCC[C@H]3C(=O)N2)NC(=O)CNC1=O` [C(1–8;3–9), CPCFLLGCC] (H-CPCFLLGCC-OH; disulfide 1-8, 3-9; N-terminus and C-terminus assumed) the IC50 [1] was about 20 µM, the water solubility [2] was “poorer water solubility” and the IC50 ([3]; read-out: IC50, inhibition of THP-1 cell adhesion on LLG-C4-GST, 60 min at 37° C.) was 20 µM. The IC50 [4] was about 200 µM and the IC50 ([5]; ICAM-1-Fc directly coated or captured via protein A, read-out: IC50, inhibition of Jurkat cell adhesion to ICAM-1-Fc) was about 80 µM.

In the case of “ACDCRGDCFCG [RGD-4C, RGD-containing peptide, ligand of several β1 and β3 integrins, reference compound]”, the “inhibition of THP-1 adhesion on fibrinogen after peptide pre-stimulation” value ([6]; cells pre-stimulated with phorbol ester (50 nM) and RGD-4C and C(1–8;3–9) each 2.5 μM, 30-min incubation) is reported as “more effectively than C(1–8;3–9)” and the “effect on T cell binding to TNF-α-stimulated endothelial cells” value [7] is reported as “no effect”.

In the case of “CPCFLLGCC [C(1–9;3–8), LLG-C4 conformer with disulfide bridges C1–C9 and C3–C8]”, the “inhibition of THP-1 cell migration through fibrinogen-coated filter” value (THP-1 cells [8]) is reported as “inhibited only partially”, the “inhibition of THP-1 adhesion to fibrinogen” value ([6]; phorbol ester-stimulated THP-1, 60 min) is reported as “no effect” and the “fold less active than C(1–8;3–9), THP-1 adhesion on LLG-C4-GST” value [3] is reported as 20 fold. The “THP-1 cell binding to coated peptide crosslinked with glutaraldehyde” value (THP-1 cells [9]; peptide coated at 40 μg/ml in presence of glutaraldehyde) was “gave no cell binding”, the “THP-1 cell binding to coated peptide” value (THP-1 cells [9]; peptide coated at 40 μg/ml, without glutaraldehyde) was “failed to bind” and the “inhibition of Jurkat cell adhesion to ICAM-1-Fc” value ([5]; compared with C(1–8;3–9)) was “several fold less active and had hardly any effect”.
